Strand notation (5' to 3'): a small letter for the sugar, then the base; units joined by * are phosphorothioate-linked, units joined directly phosphodiester-linked; [ ] holds rarer units or linkages, { } end groups; capitals alone tell only the bases. e = 2'-O-(2-methoxyethyl) (MOE); [5mC] = 5-methylcytosine; d = 2'-deoxy (DNA)

For the first series, the system named is human LIM domain kinase 1 mRNA. As to the kind of experiment: Antisense inhibition of human LIM domain kinase 1 mRNA levels, quantitative real-time PCR, A549 cells (screen). Format: cell-based. The settings on record: quantitative real-time PCR, averages from two experiments, screening concentration not given (50 nM to 300 nM used herein). On the procedure: When cells reached 70% confluency, they were treated with oligonucleotide. […] Cells were harvested 16-24 hours after oligonucleotide treatment.
Vacuum was applied for 1 minute.
PCR reagents were obtained from Invitrogen Corporation, (Carlsbad, Calif.).
Total RNA is quantified using RiboGreenTM RNA quantification reagent from Molecular Probes.
Probes and primers to human LIM domain kinase 1 were designed to hybridize to a human LIM domain kinase 1 sequence, using published sequence information (GenBank accession number D26309.1, incorporated herein as SEQ ID NO:4). For human LIM domain kinase 1 the PCR primers were: forward primer: […] (SEQ ID NO: 5) reverse primer: […] (SEQ ID NO: 6) and the PCR probe was: FAM-[…]-TAMRA (SEQ ID NO: 7) where FAM is the fluorescent dye and TAMRA is the quencher dye.
All cytidine residues are 5-methylcytidines. […] Data are averages from two experiments in which A549 cells were treated with the oligonucleotides of the present invention. […] If present, “N.D.” indicates “no data”.
“206218 (antisense eT*eG*eA*eG*eA*dA*dA*dG*d[5mC]*dT*dT*d[5mC]*dA*d[5mC]*dA*eG*eT*eT*eT*eT) [compound 206218]”: the “% INHIB (inhibition of human LIM domain kinase 1 mRNA levels)” value (“% INHIB” below) stood at 43%.

In the case of “206220 (antisense e[5mC]*eA*eA*eA*eG*dT*dG*d[5mC]*dA*d[5mC]*dT*dG*dA*dG*dA*eA*eA*eG*e[5mC]*eT) [compound 206220]”, the “% INHIB” value was found to be 59%.

In the case of “206221 (antisense eT*e[5mC]*e[5mC]*e[5mC]*eA*d[5mC]*d[5mC]*dT*d[5mC]*d[5mC]*d[5mC]*dT*dA*dA*dG*eT*e[5mC]*eA*eT*eG) [compound 206221]”, the “% INHIB” value was 17%.

Consider “206222 (antisense eG*eG*eT*eG*eG*dG*dT*d[5mC]*d[5mC]*d[5mC]*dA*d[5mC]*d[5mC]*dT*d[5mC]*e[5mC]*e[5mC]*eT*eA*eA) [compound 206222]”, for which the “% INHIB” value is on record as 63%.

On to “206223 (antisense eG*eG*eT*eG*eT*dG*dT*d[5mC]*dA*d[5mC]*d[5mC]*dT*dT*dG*dA*eT*eA*eG*e[5mC]*e[5mC]) [compound 206223]”, for which the “% INHIB” value was determined as 62%.

Take “206224 (antisense eG*e[5mC]*eT*eG*e[5mC]*dT*dG*d[5mC]*dA*dG*d[5mC]*d[5mC]*dG*dT*dA*eT*eG*eA*eA*eA) [compound 206224]”: the “% INHIB” value came out at 66%.

Turning to “206225 (antisense eG*eG*eA*eG*eT*dG*dA*dA*dA*dG*d[5mC]*dA*d[5mC]*d[5mC]*d[5mC]*eA*eG*e[5mC]*eT*eG) [compound 206225]”, the “% INHIB” value came to 74%.

As to “206226 (antisense eT*eA*eG*eG*eT*d[5mC]*d[5mC]*d[5mC]*dA*d[5mC]*dA*dG*d[5mC]*d[5mC]*d[5mC]*e[5mC]*eT*eG*eA*eG) [compound 206226]”, the “% INHIB” value was 9%.

In the case of “206227 (antisense e[5mC]*eT*e[5mC]*eA*eG*dA*d[5mC]*d[5mC]*d[5mC]*dT*dT*dG*dA*dG*dT*eT*eA*e[5mC]*eT*eG) [compound 206227]”, the “% INHIB” value was found to be 68%.

Take “206228 (antisense eA*e[5mC]*eT*eG*e[5mC]*d[5mC]*dT*d[5mC]*dT*d[5mC]*dG*dG*dG*dT*dT*e[5mC]*eA*eA*eG*e[5mC]) [compound 206228]”: the “% INHIB” value is listed as 69%.

For “206229 (antisense eG*eT*e[5mC]*eA*e[5mC]*dA*dA*d[5mC]*dA*d[5mC]*d[5mC]*dT*dG*d[5mC]*dA*eG*eG*eA*eG*eA) [compound 206229]”, the “% INHIB” value was determined as 66%.

“206230 (antisense e[5mC]*e[5mC]*eA*eG*eG*dT*dG*dA*dG*dT*dG*dT*dG*d[5mC]*dA*eA*eG*eG*e[5mC]*eA) [compound 206230]”: the “% INHIB” value is listed as 74%.

As for “206231 (antisense eG*e[5mC]*eA*eG*eT*dG*d[5mC]*d[5mC]*d[5mC]*dG*d[5mC]*dT*dG*d[5mC]*dA*eA*eG*eA*eG*e[5mC]) [compound 206231]”, the “% INHIB” value is on record as 76%.

With “206232 (antisense eA*eT*eG*e[5mC]*eT*dG*d[5mC]*dA*dG*d[5mC]*dT*d[5mC]*d[5mC]*dT*d[5mC]*e[5mC]*eT*eG*eG*eG) [compound 206232]”, the “% INHIB” value was determined as 81%.

Consider “206233 (antisense eG*eG*eT*e[5mC]*e[5mC]*dT*dT*dG*d[5mC]*dG*d[5mC]*dT*dG*dG*dG*eA*eG*eG*e[5mC]*e[5mC]) [compound 206233]”, for which the “% INHIB” value is listed as 80%.

Turning to “206234 (antisense e[5mC]*eA*eT*eT*e[5mC]*dT*dT*dG*dT*dT*d[5mC]*dT*dG*dG*dG*eA*eA*eG*eG*eT) [compound 206234]”, the “% INHIB” value was 61%.

For “206235 (antisense eT*eA*eG*e[5mC]*eT*dG*dG*dG*dA*dT*dT*dA*d[5mC]*dA*dG*eT*eA*e[5mC]*eT*eA) [compound 206235]”, the “% INHIB” value amounted to 53%.

Take “206236 (antisense e[5mC]*eT*eG*eG*eA*d[5mC]*d[5mC]*dT*dA*d[5mC]*d[5mC]*dT*d[5mC]*dG*d[5mC]*eA*e[5mC]*eA*eG*eG) [compound 206236]”: the “% INHIB” value worked out at 43%.

“206237 (antisense eG*eT*e[5mC]*e[5mC]*eT*dG*d[5mC]*d[5mC]*d[5mC]*d[5mC]*dA*d[5mC]*dA*dG*dA*e[5mC]*eT*e[5mC]*eA*eG) [compound 206237]”: the “% INHIB” value stood at 62%.

As to “206238 (antisense eG*e[5mC]*eA*eT*eG*dA*dA*dG*dG*d[5mC]*dA*d[5mC]*dT*dA*d[5mC]*e[5mC]*eT*e[5mC]*e[5mC]*e[5mC]) [compound 206238]”, the “% INHIB” value is listed as 53%.

The same series, now with this note: real-time PCR, bound stated.
With “aaaggatggcctcttctcgg (eA*eA*eA*eG*eG*dA*dT*dG*dG*d[5mC]*d[5mC]*dT*d[5mC]*dT*dT*e[5mC]*eT*e[5mC]*eG*eG; antisense) [ISIS 206205]”, the “inhibition of human LIM domain kinase 1 expression (text summary of Table 1)” value (“inhibition … (text summary of Table 1)” below) is reported as “at least 65%”.

“aacctcatgcactcgacggg (eA*eA*e[5mC]*e[5mC]*eT*d[5mC]*dA*dT*dG*d[5mC]*dA*d[5mC]*dT*d[5mC]*dG*eA*e[5mC]*eG*eG*eG; antisense) [ISIS 206161]”: the “inhibition … (text summary of Table 1)” value is “at least 65%”.

Consider “aagcttcacagttttaatac (eA*eA*eG*e[5mC]*eT*dT*d[5mC]*dA*d[5mC]*dA*dG*dT*dT*dT*dT*eA*eA*eT*eA*e[5mC]; antisense) [ISIS 206217]”, for which the “inhibition … (text summary of Table 1)” value is recorded as “at least 65%”.

As for “acatctgggctcatgcagcc (eA*e[5mC]*eA*eT*e[5mC]*dT*dG*dG*dG*d[5mC]*dT*d[5mC]*dA*dT*dG*e[5mC]*eA*eG*e[5mC]*e[5mC]; antisense) [ISIS 206180]”, the “inhibition … (text summary of Table 1)” value is given as “at least 65%”.

In the case of “actgcctctcgggttcaagc (eA*e[5mC]*eT*eG*e[5mC]*d[5mC]*dT*d[5mC]*dT*d[5mC]*dG*dG*dG*dT*dT*e[5mC]*eA*eA*eG*e[5mC]; antisense) [ISIS 206228]”, the “inhibition … (text summary of Table 1)” value is recorded as “at least 65%”.

For the substance “agcttggagtgctccaccag (eA*eG*e[5mC]*eT*eT*dG*dG*dA*dG*dT*dG*d[5mC]*dT*d[5mC]*d[5mC]*eA*e[5mC]*e[5mC]*eA*eG; antisense) [ISIS 206177]”, the “inhibition … (text summary of Table 1)” value is given as “at least 65%”.

As for “agggcctggaggtactggcc (eA*eG*eG*eG*e[5mC]*d[5mC]*dT*dG*dG*dA*dG*dG*dT*dA*d[5mC]*eT*eG*eG*e[5mC]*e[5mC]; antisense) [ISIS 206171]”, the “inhibition … (text summary of Table 1)” value is “at least 65%”.

Turning to “aggtaggccatccctgatgc (eA*eG*eG*eT*eA*dG*dG*d[5mC]*d[5mC]*dA*dT*d[5mC]*d[5mC]*d[5mC]*dT*eG*eA*eT*eG*e[5mC]; antisense) [ISIS 206201]”, the “inhibition … (text summary of Table 1)” value was “at least 65%”.

Consider “aggtccttgcgctgggaggc (eA*eG*eG*eT*e[5mC]*d[5mC]*dT*dT*dG*d[5mC]*dG*d[5mC]*dT*dG*dG*eG*eA*eG*eG*e[5mC]; antisense) [ISIS 206193]”, for which the “inhibition … (text summary of Table 1)” value is recorded as “at least 65%”.

“agtacagcttggagtgctcc (eA*eG*eT*eA*e[5mC]*dA*dG*d[5mC]*dT*dT*dG*dG*dA*dG*dT*eG*e[5mC]*eT*e[5mC]*e[5mC]; antisense) [ISIS 206178]”: the “inhibition … (text summary of Table 1)” value was “at least 65%”.

Regarding “agtagtccttcttgcagaag (eA*eG*eT*eA*eG*dT*d[5mC]*d[5mC]*dT*dT*d[5mC]*dT*dT*dG*d[5mC]*eA*eG*eA*eA*eG; antisense) [ISIS 206173]”, the “inhibition … (text summary of Table 1)” value is recorded as “at least 65%”.

“atacgttcttccctccaggt (eA*eT*eA*e[5mC]*eG*dT*dT*d[5mC]*dT*dT*d[5mC]*d[5mC]*d[5mC]*dT*d[5mC]*e[5mC]*eA*eG*eG*eT; antisense) [ISIS 206167]”: the “inhibition … (text summary of Table 1)” value is recorded as “at least 65%”.

“atgctgcagctcctcctggg (eA*eT*eG*e[5mC]*eT*dG*d[5mC]*dA*dG*d[5mC]*dT*d[5mC]*d[5mC]*dT*d[5mC]*e[5mC]*eT*eG*eG*eG; antisense) [ISIS 206232]”: the “inhibition … (text summary of Table 1)” value was “at least 65%”.

As to “atttccaagatccggtctcc (eA*eT*eT*eT*e[5mC]*d[5mC]*dA*dA*dG*dA*dT*d[5mC]*d[5mC]*dG*dG*eT*e[5mC]*eT*e[5mC]*e[5mC]; antisense) [ISIS 206184]”, the “inhibition … (text summary of Table 1)” value is given as “at least 65%”.

In the case of “caggtgcaacaaagtagcgt (e[5mC]*eA*eG*eG*eT*dG*d[5mC]*dA*dA*d[5mC]*dA*dA*dA*dG*dT*eA*eG*e[5mC]*eG*eT; antisense) [ISIS 206164]”, the “inhibition … (text summary of Table 1)” value is on record as “at least 65%”.

As to “cattcttgttctcgcggacc (e[5mC]*eA*eT*eT*e[5mC]*dT*dT*dG*dT*dT*d[5mC]*dT*d[5mC]*dG*d[5mC]*eG*eG*eA*e[5mC]*e[5mC]; antisense) [ISIS 206204]”, the “inhibition … (text summary of Table 1)” value is on record as “at least 65%”.

Regarding “ccacctcccgcggaggaatc (e[5mC]*e[5mC]*eA*e[5mC]*e[5mC]*dT*d[5mC]*d[5mC]*d[5mC]*dG*d[5mC]*dG*dG*dA*dG*eG*eA*eA*eT*e[5mC]; antisense) [ISIS 206208]”, the “inhibition … (text summary of Table 1)” value is given as “at least 65%”.

The record behind these values is patent US20040014047A1, “Antisense modulation of LIM domain kinase 1 expression” (Isis Pharmaceuticals Inc., priority 2002, published 2004).
